Measurements reported in US10106538B2, “Inhibitors of protein kinases” (PRINCETON DRUG DISCOVERY INC, priority 2015, dated 2018).

What was measured:
Experiment in all cases: Off-chip Mobility Shift Assay (MSA) kinase inhibition
Assay type in all cases: biochemical
FAK = biological target: T1, FAK (Homo sapiens, UniProt Q05397); details: inhibitor concentration 0.1 μM
T1 construct: purchased Carna Biosciences, Inc
How it was run: (§1)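 Incubation of each kinase with compound plus substrate/ATP/metal for 1 or 5 h, room temperature, 20 mM HEPES pH 7.5 buffer; off-chip mobility shift assay.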

PKACα = biological target: T2, PKACα (Homo sapiens, UniProt P17612); details: inhibitor concentration 0.1 μM
T2 construct: purchased Carna Biosciences, Inc
How it was run: as §1

BMX = biological target: T3, BMX (Homo sapiens, UniProt P51813); details: inhibitor concentration 0.1 μM
T3 construct: purchased Carna Biosciences
T3 sequence (P51813 1-675): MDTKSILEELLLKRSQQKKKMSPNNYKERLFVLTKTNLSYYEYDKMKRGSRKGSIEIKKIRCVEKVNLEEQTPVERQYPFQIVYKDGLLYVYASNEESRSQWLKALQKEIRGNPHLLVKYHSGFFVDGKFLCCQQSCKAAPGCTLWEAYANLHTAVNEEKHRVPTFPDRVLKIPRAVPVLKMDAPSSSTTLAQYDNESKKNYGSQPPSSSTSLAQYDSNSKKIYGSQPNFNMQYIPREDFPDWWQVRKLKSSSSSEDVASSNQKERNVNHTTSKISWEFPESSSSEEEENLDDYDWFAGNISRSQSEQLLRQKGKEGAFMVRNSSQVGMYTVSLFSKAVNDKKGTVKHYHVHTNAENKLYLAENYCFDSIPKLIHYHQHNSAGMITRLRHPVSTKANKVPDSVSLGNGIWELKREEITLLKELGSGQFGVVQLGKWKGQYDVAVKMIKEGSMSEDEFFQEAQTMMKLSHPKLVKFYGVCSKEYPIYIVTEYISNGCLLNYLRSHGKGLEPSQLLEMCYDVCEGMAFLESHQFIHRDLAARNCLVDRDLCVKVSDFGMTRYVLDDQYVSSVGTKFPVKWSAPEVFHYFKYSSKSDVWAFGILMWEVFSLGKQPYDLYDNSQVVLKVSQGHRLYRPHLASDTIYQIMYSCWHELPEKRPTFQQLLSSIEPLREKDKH
How it was run: as §1

EGFR(L858R) = biological target: T4, EGFR(L858R) (Homo sapiens, UniProt P00533, L858R); details: inhibitor concentration 0.1 μM
T4 construct: purchased Carna Biosciences
T4 sequence (P00533 25-1210 L858R): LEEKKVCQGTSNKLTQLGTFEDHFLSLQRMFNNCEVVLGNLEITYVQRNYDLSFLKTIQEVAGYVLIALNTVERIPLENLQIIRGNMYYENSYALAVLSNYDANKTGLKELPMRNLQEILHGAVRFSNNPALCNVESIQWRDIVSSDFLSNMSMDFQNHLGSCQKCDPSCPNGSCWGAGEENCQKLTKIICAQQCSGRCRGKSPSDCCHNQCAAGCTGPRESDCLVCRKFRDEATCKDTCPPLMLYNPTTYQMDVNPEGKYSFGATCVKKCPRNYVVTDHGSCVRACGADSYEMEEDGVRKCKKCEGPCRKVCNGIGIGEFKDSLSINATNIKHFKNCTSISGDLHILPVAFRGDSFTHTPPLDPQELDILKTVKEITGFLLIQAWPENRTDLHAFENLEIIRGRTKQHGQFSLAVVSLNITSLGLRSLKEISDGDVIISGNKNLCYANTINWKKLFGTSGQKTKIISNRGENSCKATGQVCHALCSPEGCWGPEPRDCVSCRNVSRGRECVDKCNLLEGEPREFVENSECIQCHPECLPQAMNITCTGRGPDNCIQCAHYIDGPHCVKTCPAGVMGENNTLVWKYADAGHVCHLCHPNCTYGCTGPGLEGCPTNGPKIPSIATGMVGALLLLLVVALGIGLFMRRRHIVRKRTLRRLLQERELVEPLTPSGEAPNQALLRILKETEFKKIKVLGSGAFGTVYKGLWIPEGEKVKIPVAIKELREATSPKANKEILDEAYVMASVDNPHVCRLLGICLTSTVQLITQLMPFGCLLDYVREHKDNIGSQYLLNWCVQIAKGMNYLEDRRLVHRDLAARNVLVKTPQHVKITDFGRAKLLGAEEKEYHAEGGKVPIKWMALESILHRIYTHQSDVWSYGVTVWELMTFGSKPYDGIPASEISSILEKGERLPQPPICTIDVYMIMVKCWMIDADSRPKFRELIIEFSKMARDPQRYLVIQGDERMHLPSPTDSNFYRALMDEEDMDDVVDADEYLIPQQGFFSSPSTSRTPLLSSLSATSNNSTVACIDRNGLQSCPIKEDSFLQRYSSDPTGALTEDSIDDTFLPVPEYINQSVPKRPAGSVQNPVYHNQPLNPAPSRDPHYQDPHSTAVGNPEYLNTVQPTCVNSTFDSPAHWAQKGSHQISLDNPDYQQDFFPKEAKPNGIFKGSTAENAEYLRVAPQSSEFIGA
How it was run: as §1

JAK3 = biological target: T5, JAK3 (Homo sapiens, UniProt P52333); details: for inhibition at 0.1 µM: inhibitor concentration 0.1 μM
T5 construct: purchased Carna Biosciences
T5 sequence (P52333 1-1124): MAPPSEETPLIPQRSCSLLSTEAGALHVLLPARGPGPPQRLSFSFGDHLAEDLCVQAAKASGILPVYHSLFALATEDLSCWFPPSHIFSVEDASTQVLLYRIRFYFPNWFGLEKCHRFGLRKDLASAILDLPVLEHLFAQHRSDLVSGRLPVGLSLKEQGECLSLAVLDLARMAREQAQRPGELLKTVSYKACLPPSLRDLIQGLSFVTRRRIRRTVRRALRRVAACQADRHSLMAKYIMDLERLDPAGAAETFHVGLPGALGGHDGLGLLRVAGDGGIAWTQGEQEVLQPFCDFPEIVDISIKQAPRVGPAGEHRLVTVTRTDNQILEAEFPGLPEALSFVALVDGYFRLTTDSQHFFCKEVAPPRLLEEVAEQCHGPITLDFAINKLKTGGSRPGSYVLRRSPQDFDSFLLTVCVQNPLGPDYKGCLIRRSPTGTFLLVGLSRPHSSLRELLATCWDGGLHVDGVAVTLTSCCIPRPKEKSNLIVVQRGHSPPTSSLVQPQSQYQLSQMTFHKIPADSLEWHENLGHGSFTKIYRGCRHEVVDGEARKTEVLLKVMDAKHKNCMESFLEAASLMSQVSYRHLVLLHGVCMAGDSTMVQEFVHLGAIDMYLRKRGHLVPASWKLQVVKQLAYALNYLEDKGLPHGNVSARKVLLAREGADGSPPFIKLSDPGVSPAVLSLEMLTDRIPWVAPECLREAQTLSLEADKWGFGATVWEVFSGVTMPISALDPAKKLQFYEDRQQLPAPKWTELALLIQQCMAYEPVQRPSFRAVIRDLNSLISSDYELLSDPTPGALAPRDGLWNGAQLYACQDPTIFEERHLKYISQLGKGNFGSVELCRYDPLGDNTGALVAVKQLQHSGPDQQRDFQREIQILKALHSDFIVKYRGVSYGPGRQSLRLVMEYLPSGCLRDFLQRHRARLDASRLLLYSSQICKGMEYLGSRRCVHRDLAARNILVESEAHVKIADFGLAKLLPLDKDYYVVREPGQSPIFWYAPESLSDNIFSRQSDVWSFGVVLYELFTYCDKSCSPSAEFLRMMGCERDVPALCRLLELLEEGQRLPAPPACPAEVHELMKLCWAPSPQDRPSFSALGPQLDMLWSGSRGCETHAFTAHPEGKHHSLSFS
How it was run: as §1

MAPKAPK2 = biological target: T6, MAPKAPK2 (Homo sapiens, UniProt P49137); details: inhibitor concentration 0.1 μM
T6 construct: purchased Carna Biosciences
T6 sequence (P49137 whole entry): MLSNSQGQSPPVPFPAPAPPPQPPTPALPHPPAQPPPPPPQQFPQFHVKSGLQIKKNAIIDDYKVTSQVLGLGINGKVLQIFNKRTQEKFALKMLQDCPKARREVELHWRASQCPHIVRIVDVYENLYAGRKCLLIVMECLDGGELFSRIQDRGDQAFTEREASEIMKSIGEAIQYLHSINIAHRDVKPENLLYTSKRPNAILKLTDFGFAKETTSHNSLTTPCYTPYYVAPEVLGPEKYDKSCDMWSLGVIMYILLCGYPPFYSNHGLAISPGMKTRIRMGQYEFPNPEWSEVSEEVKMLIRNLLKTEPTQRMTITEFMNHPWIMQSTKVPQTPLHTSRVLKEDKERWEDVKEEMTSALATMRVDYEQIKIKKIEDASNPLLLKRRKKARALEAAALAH
How it was run: as §1

Erk1 = biological target: T7, Erk1 (Homo sapiens, UniProt P27361); details: for inhibition at 0.1 µM: inhibitor concentration 0.1 μM
T7 construct: purchased Carna Biosciences
T7 sequence (P27361 whole entry): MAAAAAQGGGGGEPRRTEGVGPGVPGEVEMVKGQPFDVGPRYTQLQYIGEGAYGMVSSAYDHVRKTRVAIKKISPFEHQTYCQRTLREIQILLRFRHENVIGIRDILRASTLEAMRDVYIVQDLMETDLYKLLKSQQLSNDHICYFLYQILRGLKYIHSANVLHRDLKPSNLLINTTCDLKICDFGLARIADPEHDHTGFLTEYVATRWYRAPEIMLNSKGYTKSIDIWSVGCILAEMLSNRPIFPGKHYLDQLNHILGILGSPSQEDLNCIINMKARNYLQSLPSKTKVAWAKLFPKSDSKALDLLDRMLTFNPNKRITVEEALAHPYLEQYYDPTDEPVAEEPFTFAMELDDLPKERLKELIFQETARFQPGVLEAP
How it was run: as §1

IGF1R = biological target: T8, IGF1R (Homo sapiens, UniProt P08069); details: for inhibition at 0.1 µM: inhibitor concentration 0.1 μM
T8 construct: purchased Carna Biosciences
T8 sequence (P08069 31-1367): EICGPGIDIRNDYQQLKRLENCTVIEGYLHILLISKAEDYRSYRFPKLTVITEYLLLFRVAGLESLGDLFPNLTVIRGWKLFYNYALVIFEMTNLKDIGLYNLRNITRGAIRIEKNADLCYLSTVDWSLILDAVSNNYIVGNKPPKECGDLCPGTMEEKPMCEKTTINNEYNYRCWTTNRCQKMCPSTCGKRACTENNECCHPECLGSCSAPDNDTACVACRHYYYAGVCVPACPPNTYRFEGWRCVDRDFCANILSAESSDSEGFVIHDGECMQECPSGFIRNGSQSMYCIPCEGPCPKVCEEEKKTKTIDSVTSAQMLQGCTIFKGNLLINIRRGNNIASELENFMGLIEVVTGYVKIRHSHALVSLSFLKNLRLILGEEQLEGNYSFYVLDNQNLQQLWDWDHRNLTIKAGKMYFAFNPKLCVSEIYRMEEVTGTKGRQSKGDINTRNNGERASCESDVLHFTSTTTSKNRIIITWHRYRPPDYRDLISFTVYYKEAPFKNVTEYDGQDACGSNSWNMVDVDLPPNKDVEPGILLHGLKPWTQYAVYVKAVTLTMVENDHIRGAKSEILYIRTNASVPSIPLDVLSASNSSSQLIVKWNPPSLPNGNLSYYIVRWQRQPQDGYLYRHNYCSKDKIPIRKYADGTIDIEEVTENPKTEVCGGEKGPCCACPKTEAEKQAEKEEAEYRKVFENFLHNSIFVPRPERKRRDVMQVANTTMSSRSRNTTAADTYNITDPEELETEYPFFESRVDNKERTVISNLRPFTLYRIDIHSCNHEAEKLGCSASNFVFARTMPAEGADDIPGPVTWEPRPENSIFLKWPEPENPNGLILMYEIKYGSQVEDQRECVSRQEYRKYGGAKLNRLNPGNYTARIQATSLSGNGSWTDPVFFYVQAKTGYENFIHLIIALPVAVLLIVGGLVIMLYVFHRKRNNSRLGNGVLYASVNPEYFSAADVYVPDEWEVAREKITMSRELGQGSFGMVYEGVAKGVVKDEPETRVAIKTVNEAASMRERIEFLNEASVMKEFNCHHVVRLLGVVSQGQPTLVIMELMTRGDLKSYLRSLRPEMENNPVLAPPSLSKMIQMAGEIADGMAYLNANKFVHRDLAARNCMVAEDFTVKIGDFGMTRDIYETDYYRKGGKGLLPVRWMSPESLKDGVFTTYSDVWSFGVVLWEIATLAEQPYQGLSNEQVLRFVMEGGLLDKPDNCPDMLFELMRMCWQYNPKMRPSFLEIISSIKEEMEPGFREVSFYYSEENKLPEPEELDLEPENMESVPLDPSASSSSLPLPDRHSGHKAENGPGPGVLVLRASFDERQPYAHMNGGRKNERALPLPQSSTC
How it was run: as §1

T1 sequence (Q05397 whole entry): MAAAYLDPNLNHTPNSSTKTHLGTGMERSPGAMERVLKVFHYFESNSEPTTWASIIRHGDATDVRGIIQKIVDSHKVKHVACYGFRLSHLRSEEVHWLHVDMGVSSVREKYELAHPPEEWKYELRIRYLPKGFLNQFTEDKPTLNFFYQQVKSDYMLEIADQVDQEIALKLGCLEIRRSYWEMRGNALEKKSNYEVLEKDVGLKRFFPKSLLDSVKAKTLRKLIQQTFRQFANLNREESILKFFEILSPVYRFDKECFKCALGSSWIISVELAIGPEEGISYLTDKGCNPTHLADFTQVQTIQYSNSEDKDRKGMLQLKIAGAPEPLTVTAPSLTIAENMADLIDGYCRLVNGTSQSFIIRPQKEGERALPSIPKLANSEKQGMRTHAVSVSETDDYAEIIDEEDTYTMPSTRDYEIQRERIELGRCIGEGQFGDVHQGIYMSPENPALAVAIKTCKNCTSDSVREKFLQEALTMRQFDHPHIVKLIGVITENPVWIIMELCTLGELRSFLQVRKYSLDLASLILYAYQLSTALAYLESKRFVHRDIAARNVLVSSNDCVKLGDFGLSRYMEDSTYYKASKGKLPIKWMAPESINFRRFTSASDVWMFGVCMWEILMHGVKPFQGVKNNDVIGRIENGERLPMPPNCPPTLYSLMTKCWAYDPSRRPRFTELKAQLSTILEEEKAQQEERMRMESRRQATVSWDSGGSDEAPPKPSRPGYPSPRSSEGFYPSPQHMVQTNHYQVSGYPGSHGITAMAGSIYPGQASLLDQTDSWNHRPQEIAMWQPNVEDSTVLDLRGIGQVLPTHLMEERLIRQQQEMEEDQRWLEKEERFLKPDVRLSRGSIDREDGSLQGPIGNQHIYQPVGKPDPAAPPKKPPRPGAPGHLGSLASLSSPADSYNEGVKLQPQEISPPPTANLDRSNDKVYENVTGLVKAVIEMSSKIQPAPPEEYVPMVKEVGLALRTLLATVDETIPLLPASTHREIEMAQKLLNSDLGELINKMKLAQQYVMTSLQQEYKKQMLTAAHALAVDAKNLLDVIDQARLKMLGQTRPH

SMILES | inhibition at 0.1 µM (FAK) [%] | inhibition at 0.1 µM (PKACα) [%] | inhibition at 0.1 µM (BMX) [%] | inhibition at 0.1 µM (EGFR(L858R)) [%] | inhibition at 0.1 µM (JAK3) [%] | inhibition at 0.1 µM (MAPKAPK2) [%] | inhibition at 0.1 µM (Erk1) [%] | inhibition at 0.1 µM (IGF1R) [%] | inhibition at 0.01 µM (JAK3; inhibitor concentration 0.01 μM) [%] | inhibition at 1 µM (JAK3; inhibitor concentration 1 μM) [%] | inhibition at 1 µM (Erk1; inhibitor concentration 1 μM) [%] | inhibition at 1 µM (IGF1R; inhibitor concentration 1 μM) [%] | JAK3 inhibition (JAK3; inhibitor concentration 0.01 μM, 0.01 µM) [%]
O=C(c1c(F)ccc(NS(=O)(=O)CC(O)CO)c1F)c1c[nH]c2ncc(-c3ccc(Cl)cc3)cc12 (stereo not drawn) [200-73, N-[3-[5-(4-chlorophenyl)-lH-pyrrolo [2,3-b]pyridine-3-carbonyl]-2,4-difluorophenyl]-2,3-dihydroxypropane-l-sulfonamide] | < 30 | < 30 | < 30 | < 30 | < 30 | < 30 | < 30 | < 30 |  |  |  |  | 
O=C(c1c(F)ccc(NS(=O)(=O)CCCO)c1F)c1c[nH]c2ncc(-c3ccc(Cl)cc3)cc12 [200-17, N-[3-[5-(4-chlorophenyl)-1H-pyrrolo[2,3-b]pyridine-3-carbonyl]-2,4-difluorophenyl]-3-hydroxypropane-1-sulfonamide] |  |  |  |  | < 50 |  |  |  | < 30 | > 50 | < 50 | < 50 | 
CC(O)CS(=O)(=O)Nc1ccc(F)c(C(=O)c2c[nH]c3ncc(-c4ccc(Cl)cc4)cc23)c1F (stereo not drawn) [200-115] | < 30 | < 30 | < 30 | < 30 | < 30 | < 30 | < 30 | < 30 |  |  |  |  | 
C/C=C/S(=O)(=O)Nc1ccc(F)c(C(=O)c2c[nH]c3ncc(-c4ccc(Cl)cc4)cc23)c1F [200-93b] |  |  |  |  |  |  |  |  |  |  |  |  | <20
CC(=O)CS(=O)(=O)Nc1ccc(F)c(C(=O)c2c[nH]c3ncc(-c4ccc(Cl)cc4)cc23)c1F [200-117] | < 30 | < 30 | < 30 | < 30 | < 30 | < 30 | < 30 | < 30 |  |  |  |  | 
